Experimental data from ChEMBL document CHEMBL1201862, “PubChem BioAssay data set” (2004).
Activity calls are given as the source filed them.

Key:
[1] = target: T1, COUP transcription factor 2 (Homo sapiens, UniProt P24468); assay: Luminescence-based cell-based high throughput dose response assay to identify inhibitors of COUP-TFII (NR2F2).; assay type: functional;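 note: HEK293 cells transiently cotransfected with COUP-TFII expression vector and reporter; luciferase reporter luminescence driven by COUP-TFII from the pX2-168 reporter plasmid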
T1 sequence (P24468 whole entry): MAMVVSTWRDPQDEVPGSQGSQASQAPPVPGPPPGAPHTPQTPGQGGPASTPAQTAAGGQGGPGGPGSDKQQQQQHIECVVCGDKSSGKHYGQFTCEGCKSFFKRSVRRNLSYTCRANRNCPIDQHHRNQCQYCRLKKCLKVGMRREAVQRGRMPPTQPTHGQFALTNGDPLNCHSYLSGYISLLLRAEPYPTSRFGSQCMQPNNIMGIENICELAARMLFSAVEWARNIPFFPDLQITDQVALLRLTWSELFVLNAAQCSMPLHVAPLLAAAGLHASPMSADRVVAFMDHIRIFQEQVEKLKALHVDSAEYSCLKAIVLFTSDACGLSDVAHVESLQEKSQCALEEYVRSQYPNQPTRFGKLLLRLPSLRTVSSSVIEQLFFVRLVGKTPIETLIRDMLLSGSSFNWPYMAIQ

[2] = inhibitors of PGC1a acetylation in cells, dose response, cell-based, cherry-picked samples (AID 720514); assay type: functional;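 note: potency may reflect raised or lowered acetylation signal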
[3] = human group III sPLA2 inhibitors, dose response, biochemical, QFRET, IC50 (AID 743457);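 note: green fluorescence rise as the enzyme cleaves BODIPY PC-A2 in liposomes; potency for inhibition of the enzyme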
cells [4] = assay type: functional, cell-based
[5] = target: T2, Trace amine-associated receptor 1 (Homo sapiens, UniProt Q96RJ0); assay: Fluorescence-based cell-based high throughput dose response assay to identify agonists of the human trace amine associated receptor 1 (TAAR1).; assay type: functional
T2 sequence (Q96RJ0 whole entry): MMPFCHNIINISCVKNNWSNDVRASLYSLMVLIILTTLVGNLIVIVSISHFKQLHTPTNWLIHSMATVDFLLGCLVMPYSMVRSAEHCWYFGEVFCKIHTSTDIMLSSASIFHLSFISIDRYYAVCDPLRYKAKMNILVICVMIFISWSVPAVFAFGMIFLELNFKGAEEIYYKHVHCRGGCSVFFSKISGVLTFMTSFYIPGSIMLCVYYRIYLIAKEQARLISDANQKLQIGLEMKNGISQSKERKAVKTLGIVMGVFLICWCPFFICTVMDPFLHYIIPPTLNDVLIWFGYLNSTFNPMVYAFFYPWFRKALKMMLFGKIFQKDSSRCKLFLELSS

[6] = target: T2, Trace amine-associated receptor 1; assay: Counterscreen for agonists of the human trace amine associated receptor 1 (hTAAR1): Fluorescence-based cell-based high throughput dose response assay to identify hTAAR1 agonist that also desensitize TAAR1 receptor response.; assay type: functional
cells [7] = assay type: functional, cell-based; remark: listed apart in the source
HEK293 [8] = assay: NOD1 signaling inhibitors, primary screen, cell-based, luminescence, uHTS (AID 1578); assay type: functional; settings: Homo sapiens
HEK293 [9] = assay: cells; assay type: functional, cell-based; settings: Homo sapiens
HEK293 [10] = assay: cells; assay type: functional, cell-based; settings: Homo sapiens; remark: listed apart in the source
HEK293 [11] = assay: NOD2 signaling inhibitors in MDP-stimulated cells, cell-based, uHTS, luminescence (AID 2001); assay type: functional; settings: Homo sapiens
Tumor necrosis factor = Tumor necrosis factor (Homo sapiens, UniProt P01375); assay: TNFa-triggered NF-kB activation inhibitors, SAR follow-up, cell-based, revised (AID 2337); assay type: functional
Chain of Tumor necrosis factor (P01375 whole entry, the tested form may be a part): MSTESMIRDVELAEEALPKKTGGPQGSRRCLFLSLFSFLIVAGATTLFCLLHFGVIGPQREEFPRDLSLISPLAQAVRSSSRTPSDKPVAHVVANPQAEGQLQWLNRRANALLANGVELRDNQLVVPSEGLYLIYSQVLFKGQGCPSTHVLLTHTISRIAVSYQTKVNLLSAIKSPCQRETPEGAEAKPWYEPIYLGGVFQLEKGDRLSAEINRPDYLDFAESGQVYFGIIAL

[12] = target: T3, Nucleotide-binding oligomerization domain-containing protein 1 (Homo sapiens, UniProt Q9Y239); assay: NOD1 signaling inhibitors, SAR follow-up, revised (AID 2333); assay type: functional
T3 sequence (Q9Y239 whole entry): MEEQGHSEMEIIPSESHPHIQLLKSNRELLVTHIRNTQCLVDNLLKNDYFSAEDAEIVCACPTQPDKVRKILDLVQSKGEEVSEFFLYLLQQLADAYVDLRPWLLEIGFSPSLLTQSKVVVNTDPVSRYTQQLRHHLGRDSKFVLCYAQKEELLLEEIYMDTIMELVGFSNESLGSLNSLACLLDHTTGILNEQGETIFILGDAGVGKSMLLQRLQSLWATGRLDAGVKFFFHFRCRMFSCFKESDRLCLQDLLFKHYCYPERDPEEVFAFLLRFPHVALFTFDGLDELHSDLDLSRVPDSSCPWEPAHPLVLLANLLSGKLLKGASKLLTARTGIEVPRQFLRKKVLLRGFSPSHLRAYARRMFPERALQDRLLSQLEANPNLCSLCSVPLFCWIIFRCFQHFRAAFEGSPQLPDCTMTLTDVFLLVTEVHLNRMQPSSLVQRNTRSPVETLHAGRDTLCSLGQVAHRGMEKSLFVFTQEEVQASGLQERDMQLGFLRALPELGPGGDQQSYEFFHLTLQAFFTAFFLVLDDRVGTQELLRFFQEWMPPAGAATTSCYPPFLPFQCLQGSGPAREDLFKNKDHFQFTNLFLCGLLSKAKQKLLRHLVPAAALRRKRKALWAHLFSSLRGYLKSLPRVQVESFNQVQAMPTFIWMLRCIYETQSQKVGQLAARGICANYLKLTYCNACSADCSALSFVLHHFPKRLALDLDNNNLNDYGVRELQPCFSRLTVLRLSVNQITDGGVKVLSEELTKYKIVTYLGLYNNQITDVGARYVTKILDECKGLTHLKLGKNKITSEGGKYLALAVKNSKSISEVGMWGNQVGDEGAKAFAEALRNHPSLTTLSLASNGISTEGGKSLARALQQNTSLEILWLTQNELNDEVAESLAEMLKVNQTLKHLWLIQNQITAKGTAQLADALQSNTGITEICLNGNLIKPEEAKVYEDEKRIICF

INS1 = assay: beta cell apoptosis inhibitors, cytokine rescue, dose response, luminescence, retest (AID 449756); assay type: functional, cell-based; settings: Rattus norvegicus;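 note: cell death triggered by IL-1 beta plus TNF-alpha plus IFN-gamma mixture; protective hits raise ATP signal compared with cytokine alone wells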
[13] = Shn3 3'UTR reporter inhibitors, dose response, cell-based, Clone20 osteoblasts, firefly luciferase, cherry-picked (AID 624132); assay type: functional;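 note: firefly luciferase luminescence from reporter carrying the Shn3 3'UTR in osteoblasts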
[14] = control 3'UTR Renilla luciferase suppression, dose response, counter-screen for Shn3 inhibitor project, cell-based, Clone20-Shn3RL, cherry-picked (AID 624133); assay type: functional
HEK293 [15] = assay: cells; settings: Homo sapiens
[16] = target: T4, RNA-binding protein pos-1 (Caenorhabditis elegans, UniProt G5EF15); assay: inhibitors of POS-1/mex-3 RNA binding, dose response, biochemical, fluorescence polarization (AID 1964);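 note: purified POS-1 fused to maltose binding protein made in E. coli; potency of compounds blocking POS-1 binding to fluorescent RNA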
T4 sequence (G5EF15 whole entry): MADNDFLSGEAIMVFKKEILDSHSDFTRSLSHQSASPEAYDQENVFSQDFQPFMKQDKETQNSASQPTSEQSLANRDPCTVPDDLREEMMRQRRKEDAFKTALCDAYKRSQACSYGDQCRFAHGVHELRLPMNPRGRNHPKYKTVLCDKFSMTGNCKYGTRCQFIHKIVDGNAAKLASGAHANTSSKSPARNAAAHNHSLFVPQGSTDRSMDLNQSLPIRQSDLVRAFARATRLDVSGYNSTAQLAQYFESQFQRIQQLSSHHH

[17] = target: T5, Zinc finger protein mex-5 (Caenorhabditis elegans, UniProt Q9XUB2); assay: MEX-5/TCR-2 RNA interaction inhibitors, dose response, biochemical, C. elegans, fluorescence polarization (AID 1960)
T5 sequence (Q9XUB2 whole entry): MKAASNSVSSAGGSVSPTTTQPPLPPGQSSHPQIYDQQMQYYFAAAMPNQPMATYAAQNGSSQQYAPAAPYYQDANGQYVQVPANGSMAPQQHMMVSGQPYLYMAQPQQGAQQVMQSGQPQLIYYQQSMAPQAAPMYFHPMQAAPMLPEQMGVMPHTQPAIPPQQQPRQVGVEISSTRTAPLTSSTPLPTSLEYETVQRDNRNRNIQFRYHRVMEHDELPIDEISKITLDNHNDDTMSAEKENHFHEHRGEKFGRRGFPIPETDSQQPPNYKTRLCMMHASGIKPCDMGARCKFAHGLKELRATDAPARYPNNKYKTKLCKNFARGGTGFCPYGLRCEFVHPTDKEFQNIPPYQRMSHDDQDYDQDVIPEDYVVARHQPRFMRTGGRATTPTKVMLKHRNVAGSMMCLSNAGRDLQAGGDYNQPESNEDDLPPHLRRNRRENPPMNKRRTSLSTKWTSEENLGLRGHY

Beta-lactamase [18] = target: Beta-lactamase (Pseudomonas aeruginosa, UniProt Q79MP6);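 note: biochemical dose-response test of metallo-beta-lactamase enzyme inhibition, read out by epi-absorbance; purified recombinant IMP-1 metallo-beta-lactamase with nitrocefin as substrate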
Chain of Beta-lactamase (Pseudomonas aeruginosa, UniProt Q79MP6) (Q79MP6 whole entry): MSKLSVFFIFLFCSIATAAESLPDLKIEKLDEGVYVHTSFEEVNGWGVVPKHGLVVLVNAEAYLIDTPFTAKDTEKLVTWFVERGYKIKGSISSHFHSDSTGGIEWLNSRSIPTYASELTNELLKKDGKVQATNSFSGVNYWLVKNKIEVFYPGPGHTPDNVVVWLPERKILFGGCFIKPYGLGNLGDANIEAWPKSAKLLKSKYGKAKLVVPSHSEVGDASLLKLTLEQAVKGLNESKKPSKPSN

Beta-lactamase [19] = target: Beta-lactamase (Salmonella choleraesuis (strain SC-B67), UniProt Q5J463)
Chain of Beta-lactamase (Salmonella choleraesuis (strain SC-B67), UniProt Q5J463) (Q5J463 whole entry): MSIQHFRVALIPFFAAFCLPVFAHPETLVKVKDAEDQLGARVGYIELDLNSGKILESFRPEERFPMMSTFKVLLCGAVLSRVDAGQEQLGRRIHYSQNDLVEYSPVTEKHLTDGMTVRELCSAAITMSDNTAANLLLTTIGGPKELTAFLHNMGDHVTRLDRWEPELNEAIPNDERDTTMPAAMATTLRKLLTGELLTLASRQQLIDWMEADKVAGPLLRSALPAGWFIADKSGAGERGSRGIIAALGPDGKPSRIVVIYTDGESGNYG

[20] = target: Voltage-dependent T-type calcium channel subunit alpha-1H (Homo sapiens, UniProt O95180); assay type: functional;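 note: channel activity triggered by adding a high calcium stimulation buffer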
Chain of Voltage-dependent T-type calcium channel subunit alpha-1H (O95180 whole entry, the tested form may be a part): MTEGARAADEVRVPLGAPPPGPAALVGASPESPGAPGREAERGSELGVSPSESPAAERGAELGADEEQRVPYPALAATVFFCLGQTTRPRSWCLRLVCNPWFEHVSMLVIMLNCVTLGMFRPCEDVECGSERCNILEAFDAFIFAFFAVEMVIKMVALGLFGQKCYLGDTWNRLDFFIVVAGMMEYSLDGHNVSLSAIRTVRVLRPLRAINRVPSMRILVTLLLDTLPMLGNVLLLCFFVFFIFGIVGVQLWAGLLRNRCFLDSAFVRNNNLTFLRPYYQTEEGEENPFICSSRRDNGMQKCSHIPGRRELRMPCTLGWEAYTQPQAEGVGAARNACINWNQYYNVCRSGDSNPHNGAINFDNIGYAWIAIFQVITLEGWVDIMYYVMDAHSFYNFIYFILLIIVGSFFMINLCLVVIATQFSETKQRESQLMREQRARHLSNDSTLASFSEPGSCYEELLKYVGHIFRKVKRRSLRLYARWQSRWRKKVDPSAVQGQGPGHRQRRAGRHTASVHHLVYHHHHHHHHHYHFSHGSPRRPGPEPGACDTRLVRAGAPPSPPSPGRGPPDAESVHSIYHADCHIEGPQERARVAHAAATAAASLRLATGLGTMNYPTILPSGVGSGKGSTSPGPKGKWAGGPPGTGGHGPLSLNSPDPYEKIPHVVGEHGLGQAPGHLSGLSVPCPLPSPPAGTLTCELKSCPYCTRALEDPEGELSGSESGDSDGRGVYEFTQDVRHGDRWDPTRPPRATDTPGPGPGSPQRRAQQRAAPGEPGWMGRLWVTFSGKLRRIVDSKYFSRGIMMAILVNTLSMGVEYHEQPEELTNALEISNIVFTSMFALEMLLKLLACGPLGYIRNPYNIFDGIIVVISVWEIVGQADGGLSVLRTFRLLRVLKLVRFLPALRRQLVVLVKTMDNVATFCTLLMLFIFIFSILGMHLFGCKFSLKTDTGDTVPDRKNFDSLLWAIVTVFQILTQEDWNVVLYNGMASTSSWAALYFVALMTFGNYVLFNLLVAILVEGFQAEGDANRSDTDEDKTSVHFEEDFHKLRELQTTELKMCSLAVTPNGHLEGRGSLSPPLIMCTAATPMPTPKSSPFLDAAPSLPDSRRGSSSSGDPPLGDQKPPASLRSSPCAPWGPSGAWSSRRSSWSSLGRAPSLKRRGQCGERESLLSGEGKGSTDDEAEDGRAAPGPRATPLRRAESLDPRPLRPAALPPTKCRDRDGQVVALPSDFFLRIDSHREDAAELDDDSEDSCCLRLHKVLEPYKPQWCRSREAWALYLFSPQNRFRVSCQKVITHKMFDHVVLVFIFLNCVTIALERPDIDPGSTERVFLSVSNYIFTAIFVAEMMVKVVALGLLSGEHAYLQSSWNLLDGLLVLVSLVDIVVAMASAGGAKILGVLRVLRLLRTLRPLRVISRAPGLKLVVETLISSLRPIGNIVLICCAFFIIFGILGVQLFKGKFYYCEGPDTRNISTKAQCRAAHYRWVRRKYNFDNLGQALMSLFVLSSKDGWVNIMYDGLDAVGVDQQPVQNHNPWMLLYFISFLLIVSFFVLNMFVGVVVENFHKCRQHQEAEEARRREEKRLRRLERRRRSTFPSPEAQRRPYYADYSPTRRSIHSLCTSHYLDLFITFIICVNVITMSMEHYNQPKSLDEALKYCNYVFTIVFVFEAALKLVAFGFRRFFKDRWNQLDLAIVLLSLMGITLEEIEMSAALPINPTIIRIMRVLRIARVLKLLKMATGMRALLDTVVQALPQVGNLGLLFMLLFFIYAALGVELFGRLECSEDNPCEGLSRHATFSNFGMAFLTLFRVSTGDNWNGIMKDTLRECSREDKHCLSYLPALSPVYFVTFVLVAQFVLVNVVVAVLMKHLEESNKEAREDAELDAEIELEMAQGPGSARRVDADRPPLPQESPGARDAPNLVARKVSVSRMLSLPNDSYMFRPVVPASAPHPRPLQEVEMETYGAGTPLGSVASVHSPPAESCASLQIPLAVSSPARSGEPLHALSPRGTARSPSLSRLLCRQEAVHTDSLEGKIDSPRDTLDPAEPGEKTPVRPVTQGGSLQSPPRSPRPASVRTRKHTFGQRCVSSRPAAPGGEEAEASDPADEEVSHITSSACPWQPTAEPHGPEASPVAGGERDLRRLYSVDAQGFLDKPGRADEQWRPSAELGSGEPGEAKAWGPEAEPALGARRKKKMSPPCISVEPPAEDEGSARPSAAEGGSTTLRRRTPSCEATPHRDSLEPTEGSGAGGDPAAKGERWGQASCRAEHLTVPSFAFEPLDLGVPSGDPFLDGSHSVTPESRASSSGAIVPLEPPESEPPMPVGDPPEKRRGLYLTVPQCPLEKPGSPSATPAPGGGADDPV

[21] = inhibitors of HIV Env-driven cell fusion, dose response, cherry-pick (AID 652057); assay type: functional, cell-based
[22] = CEM21 lymphoblast cell cytotoxicity, dose response, cytotoxicity control for viral fusion inhibitor project, CellTiter-Glo luminescence, cherry-picked (AID 652042); assay type: functional, cell-based;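 note: potency for signal decrease meaning cytotoxicity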
[23] = ZM109 Env clade C HIV-1 fusion inhibitors, dose response, HeLa effector, CEM target cells, luciferase, cherry-pick (AID 652058); assay type: functional, cell-based
[24] = off-target signal loss in HeLa-CEM21 co-culture – HeLa F-luc CTL cells, cherry-picked, counter-screen for HIV-1 Env fusion inhibitor project, dose response (AID 652040); assay type: functional, cell-based;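 note: potency for signal decrease marking cytotoxic or nonspecific inhibition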
[25] = inhibitors of clade B AD8 Env fusion, dose response, cell-based, cherry-pick (AID 652062); assay type: functional;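 note: luciferase signal from cell-cell fusion driven by HIV-1 clade B AD8 Env; potency is for inhibitors of fusion seen as a drop in luminescence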

CC(=O)N[C@@H](C)c1nc2ccccc2n1CCCN1CCN(c2nc(-c3ccc(C)cc3)cs2)CC1
IC50 [1]: 6.84 µM (active)

COc1cccc(-n2c(Cc3cc(O)nc(O)n3)nnc2SCc2cccc(C(F)(F)F)c2)c1
AC50 [2]: 35.1 µM (active)

O=C(CNc1cccc(Cl)c1)NNC(=S)NCc1ccccc1
IC50 [3]: > 122 µM (inactive)

Clc1ccc(CCNCc2ccncc2)c(Cl)c1
IC50 (cells [4]): > 29.9 µM (inactive)
EC50 [5]: 2.01 µM (active)
IC50 [6]: 6.77 µM (active)
EC50 (cells [7]): > 29.9 µM (inactive)

Cc1cc(C(=O)NC2CCCc3c2cnn3-c2cccc(C)c2C)n(C)n1 (stereo not drawn)
EC50 (HEK293 [8]): 170 nM (active)
IC50 (HEK293 [9]): 922 nM (active)
IC50 (HEK293 [10]): > 20 µM (inactive)
IC50 (HEK293 [11]): 609 nM (inactive)
IC50 (Tumor necrosis factor): 703 nM (active)
IC50 [12]: 289 nM (active)
AC50 (INS1): 216 nM (active)
AC50 [13]: < 260 nM (active)
AC50 [14]: < 260 nM (active)
IC50 [1]: 0.628 µM (active)
IC50 (HEK293 [15]): > 20 µM (inactive)

CCCCCCn1c(=O)[nH]c2nc3cc(N)ccc3nc2c1=O
EC50 [16]: > 300 µM (inconclusive)
EC50 [17]: > 300 µM (inconclusive)
IC50 (Beta-lactamase [18]): > 59.6 µM (inactive)
IC50 (Beta-lactamase [19]): 9.7 µM (active)

CCOc1ccc([N+](=O)[O-])cc1CNCCc1ccccc1
IC50 (cells [4]): > 29.9 µM (inactive)
EC50 [5]: 0.337 µM (active)
IC50 [6]: 4.18 µM (active)
EC50 (cells [7]): > 29.9 µM (inactive)

Clc1ccc(-n2ncc3c(NCCN4CCOCC4)ncnc32)cc1
IC50 [1]: 35.7 µM (inactive)

Clc1ccc(C(c2nnnn2CCc2ccccc2)N2CCSCC2)cc1 (stereo not drawn)
EC50 [20]: 8.87 µM (active)
AC50 [21]: 2 µM (active)
AC50 [22]: 62.2 µM (active)
AC50 [23]: 7.63 µM (active)
AC50 [24]: 4.45 µM (active)
AC50 [25]: 1.14 µM (active)
